# US8563542B2 (Cyclacel Limited, priority 2007, dated 2013)
# Like-named read-outs stand apart in the source and are kept apart here.
# Target: PLK1 (Homo sapiens, UniProt P53350)
# Assay: PLK1 protein kinase assay (CDC25C phosphorylation, [γ-32P]-ATP)
# Type: biochemical
# Conditions: read-out: PLK1 IC50
# [1] = Table 2, PLK1 IC50, class symbols
# Chain of PLK1 (P53350 whole entry): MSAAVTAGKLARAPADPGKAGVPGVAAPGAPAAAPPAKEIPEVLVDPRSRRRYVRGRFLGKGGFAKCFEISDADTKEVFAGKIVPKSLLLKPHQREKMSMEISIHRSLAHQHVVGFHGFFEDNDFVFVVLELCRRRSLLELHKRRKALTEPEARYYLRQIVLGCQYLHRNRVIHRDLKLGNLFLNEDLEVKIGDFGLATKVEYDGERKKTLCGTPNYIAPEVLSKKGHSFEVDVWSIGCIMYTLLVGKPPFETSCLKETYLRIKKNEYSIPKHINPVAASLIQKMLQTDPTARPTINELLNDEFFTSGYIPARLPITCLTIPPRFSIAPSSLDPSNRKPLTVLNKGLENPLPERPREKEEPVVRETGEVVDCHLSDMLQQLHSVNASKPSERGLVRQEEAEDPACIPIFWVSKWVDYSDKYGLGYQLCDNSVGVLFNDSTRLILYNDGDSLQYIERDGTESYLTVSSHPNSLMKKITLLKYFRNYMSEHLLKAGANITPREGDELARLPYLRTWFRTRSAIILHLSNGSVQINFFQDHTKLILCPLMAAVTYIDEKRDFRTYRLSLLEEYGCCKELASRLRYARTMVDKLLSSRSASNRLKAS
Structure (SMILES),IC50 (Table 1),IC50 [1]
"COc1cccc(N2CCC(=O)N(C)c3cnc(Nc4ccc(C(=O)NC5CCN(C)CC5)cc4OC)nc32)c1 [compound 48, 3-Methoxy-4-[9-(3-methoxy-phenyl)-5-methyl-6-oxo-6,7,8,9-tetrahydro-5H-pyrimido[4,5-b][1,4]diazepin-2-ylamino]-N-(1-methyl-piperidin-4-yl)-benzamide]",,< 10 µM
"COc1ccccc1Nc1ncc2c(n1)N(C1CCCC1)CCC(=O)N2C [compound 60, 9-Cyclopentyl-2-(2-methoxy-phenylamine)-5-methyl-5,7,8,9-tetrahydro-pyrimido[4,5-b][1,4]diazepin-6-one]",,< 1 µM
"CN1C(=O)CCN(C2CCCC2)c2nc(NCc3ccccc3)ncc21 [compound 62, 2-Benzylamino-9-cyclopentyl-5-methyl-5,7,8,9-tetrahydro-pyrimido[4,5-b][1,4]diazepin-6-one]",,< 1 µM
"COc1cc(C(=O)NC2CCN(C)CC2)ccc1Nc1ncc2c(n1)N(CC1CCCC1)CCC(=O)N2C [compound 69, 4-(9-Cyclopentylmethyl-5-methyl-6-oxo-6,7,8,9-tetrahydro-5H-pyrimido[4,5-b][1,4]diazepin-2-ylamino)-3-methoxy-N-(1-methyl-piperidin-4-yl)-benzamide]",,< 1 µM
"COc1ccc(CNc2ncc3c(n2)N(C2CCCC2)CCC(=O)N3C)cc1 [compound 92, 9-Cyclopentyl-2-(4-methoxy-benzylamino)-5-methyl-5,7,8,9-tetrahydro-pyrimido[4,5-b][1,4]diazepin-6-one]",,< 10 µM
"COc1cc(C(=O)Nc2ccccc2)ccc1Nc1ncc2c(n1)N(C1CCCC1)CCC(=O)N2C [compound 95, 4-(9-Cyclopentyl-5-methyl-6-oxo-6,7,8,9-tetrahydro-5H-pyrimido[4,5-b][1,4]diazepin-2-ylamino)-3-methoxy-N-phenyl-benzamide]",,< 10 µM
"COc1cc(C(=O)NC2CCN(C)CC2)ccc1Nc1ncc2c(n1)N(C(C)C)CC1(CC1)C(=O)N2C [compound 99, 4-(9-Isopropyl-5-methyl-6-oxo-6,7,8,9-tetrahydro-5H-spiro[pyrimido[4,5-b][1,4]diazepin-3,1′-cyclopropane]-2-ylamino)-3-methoxy-N-(1-methyl-piperidin-4-yl)-benzamide]",,< 0.1 µM
"COc1cc(C(=O)NC2CCN(C)CC2)ccc1Nc1ncc2c(n1)N(C1CCCC1)CC1(CCC1)C(=O)N2C [compound 100, 4-(9-Cyclopentyl-5-methyl-6-oxo-6,7,8,9-tetrahydro-5H-spiro[pyrimido[4,5-b][1,4]diazepin-3,1′-cyclobutane]-2-ylamino)-3-methoxy-N-(1-methyl-piperidin-4-yl)-benzamide]",,< 0.1 µM
"C=CCN1CCC(=O)N(C)c2cnc(Nc3ccc(C(=O)NC4CCN(C)CC4)cc3OC)nc21 [compound 102, 4-(9-Allyl-5-methyl-6-oxo-6,7,8,9-tetrahydro-5H-pyrimido[4,5-b][1,4]diazepin-2-ylamino)-3-methoxy-N-(1-methyl-piperidin-4-yl)-benzamide]",,< 1 µM
"CN1C(=O)CCN(C2CCCC2)c2nc(NCc3ccsc3)ncc21 [compound 106, 9-Cyclopentyl-5-methyl-2-[(thiophen-3-ylmethyl)-amino]-5,7,8,9-tetrahydro-pyrimido[4,5-b][1,4]diazepin-6-one]",,< 10 µM
"COc1cc(C(=O)NC2CCN(C)CC2)ccc1Nc1ncc2c(n1)N(C)CCC(=O)N2C [compound 111, 4-(5,9-Dimethyl-6-oxo-6,7,8,9-tetrahydro-5H-pyrimido[4,5-b][1,4]diazepin-2-ylamino)-3-methoxy-N-(1-methyl-piperidin-4-yl)-benzamide]",,< 1 µM
"CNC(=O)c1ccc(Nc2ncc3c(n2)N(C(C)C)CC2(CC2)C(=O)N3C)c(OC)c1 [compound 113, 4-(9-Isopropyl-5-methyl-6-oxo-6,7,8,9-tetrahydro-5H-spiro[pyrimido[4,5-b][1,4]diazepin-3,1′-cyclopropane]-2-ylamino)-3-methoxy-N-methyl-benzamide]",,< 1 µM
"CNC(=O)c1cccc(Nc2ncc3c(n2)N(C2CCCC2)CCC(=O)N3C)c1C [compound 141, 3-(9-Cyctopentyl-5-methyl-6-oxo-6,7,8,9-tetrahydro-5H-pyrimido[4,5-b][1,4]diazepin-2-ylamino)-2,N-dimethyl-benzamide]",,< 10 µM

# Second part, the molecule after the results:
IC50 (Table 1),IC50 [1],Structure (SMILES)
< 10 µM,,"COc1cc(C(=O)NC2CCN(C)CC2)ccc1Nc1ncc2c(n1)N(C1CCCCC1)CCC(=O)N2 [compound 39, 4-(9-Cyclohexyl-6-oxo-6,7,8,9-tetrahydro-5H-pyrimido[4,5-b][1,4]diazepin-2-ylamino)-3-methoxy-N-(1-methyl-piperidin-4-yl)-benzamide]"
,< 0.1 µM,"CCC1CN(C2CCCC2)c2nc(Nc3ccc(C(=O)NC4CCN(C)CC4)cc3OC)ncc2N(C)C1=O (stereo not shown) [compound 40, 4-(9-Cyclopentyl-7-ethyl-5-methyl-6-oxo-6,7,8,9-tetrahydro-5H-pyrimido[4,5-b][1,4]diazepin-2-ylamino)-3-methoxy-N-(1-methyl-piperidin-4-yl)-benzamide]"
,< 1 µM,"COc1cc(C(=O)NC2CCN(C)CC2)ccc1Nc1ncc2c(n1)N(c1ccccc1F)CCC(=O)N2C [compound 52, 4-[9-(2-Fluoro-phenyl)-5-methyl-6-oxo-6,7,8,9-tetrahydro-5H-pyrimido[4,5-b][1,4]diazepin-2-ylamino]-3-methoxy-N-(1-methyl-piperidin-4-yl)-benzamide]"
,< 1 µM,"CCOc1cc(C(=O)NC2CCN(C)CC2)ccc1Nc1ncc2c(n1)N(C1CCCC1)CCC(=O)N2C [compound 59, 4-(9-Cyclopentyl-5-methyl-6-oxo-6,7,8,9-tetrahydro-5H-pyrimido[4,5-b][1,4]diazepin-2-ylamino)-3-ethoxy-N-(1-methyl-piperidin-4-yl)-benzamide]"
,< 0.1 µM,"COc1cc(C(=O)NC2CCN(C)CC2)ccc1Nc1ncc2c(n1)N(CC1CC1)CCC(=O)N2C [compound 65, 4-(9-Cyclopropylmethyl-5-methyl-6-oxo-6,7,8,9-tetrahydro-5H-pyrimido[4,5-b][1,4]diazepin-2-ylamino)-3-methoxy-N-(1-methyl-piperidin-4-yl)-benzamide]"
,< 1 µM,"CCCCN1CCC(=O)N(C)c2cnc(Nc3ccc(C(=O)NC4CCN(C)CC4)cc3OC)nc21 [compound 66, 4-(9-Butyl-5-methyl-6-oxo-6,7,8,9-tetrahydro-5H-pyrimido[4,5-b][1,4]diazepin-2-ylamino)-3-methoxy-N-(1-methyl-piperidin-4-yl)-benzamide]"
,< 0.1 µM,"COc1cc(C(=O)NC2CCN(C)CC2)ccc1Nc1ncc2c(n1)N(C(C)C)CCC(=O)N2C [compound 67, 4-(9-Isopropyl-5-methyl-6-oxo-6,7,8,9 tetrahydro-5H-pyrimido[4,5-b][1,4]diazepin-2-ylamino)-3-methoxy-N-(1-methyl-piperidin-4-yl)-benzamide]"
,< 1 µM,"COc1cc(C(=O)NC2CCN(C)CC2)ccc1Nc1ncc2c(n1)N(CCC(C)C)CCC(=O)N2C [compound 68, 3-Methoxy-4-[5-methyl-9-(3-methyl-butyl)-6-oxo-6,7,8,9-tetrahydro-5H-pyrimido[4,5-b][1,4]diazepin-2-ylamino]-N-(1-methyl-piperidin-4-yl)-benzamide]"
,< 0.1 µM,"COc1ccc(Nc2ncc3c(n2)N(C2CCCC2)CCC(=O)N3C)c(OC)c1 [compound 71, 9-Cyclopentyl-2-(2,4-dimethoxy-phenylamino)-5-methyl-5,7,8,9-tetrahydro-pyrimido[4,5-b][1,4]diazepin-6-one]"
,< 10 µM,"CN1C(=O)CCN(C2CCCC2)c2nc(NCc3cccs3)ncc21 [compound 94, 9-Cyclopentyl-5-methyl-2-[(thiophen-2-ylmethyl)-amino]-5,7,8,9-tetrahydro-pyrimido[4,5-b][1,4]diazepin-6-one]"
,< 1 µM,"CN1C(=O)CCN(C2CCCC2)c2nc(Nc3cccc4cc[nH]c34)ncc21 [compound 98, 9-Cyclopentyl-2-(1H-indol-7-ylamino)-5-methyl-5,7,8,9-tetrahydro-pyrimido[4,5-b][1,4]diazepin-6-one]"
,< 1 µM,"COc1cc(C(=O)NC2CCN(C)CC2)ccc1Nc1ncc2c(n1)N(C1CCCC1)CC1(CCCC1)C(=O)N2C [compound 101, 4-(9-Cyclopentyl-5-methyl-6-oxo-6,7.8,9-tetrahydro-5H-spiro[pyrimido[4,5-b][1,4]diazepin-3,1′-cyclopentane]-2-ylamino)-3-methoxy-N-(1-methyl-piperidin-4-yl)-benzamide]"
,< 10 µM,"CN1C(=O)CCN(C2CCCC2)c2nc(NCc3ccoc3)ncc21 [compound 107, 9-Cyclopentyl-2-[(furan-3-ylmethyl)-amino]-5-methyl-5,7,8,9-tetrahydro-pyrimido[4,5-b][1,4]diazepin-6-one]"
,< 10 µM,"CNC(=O)c1ccc(Nc2ncc3c(n2)N(C)CCC(=O)N3C)c(OC)c1 [compound 112, 4-(5,9-Dimethyl-6-oxo-6,7,8,9-tetrahydro-5H-pyrimido[4,5-b][1,4]diazepin-2-ylamino)-3-methoxy-N-methyl-benzamide]"
,< 10 µM,"CN1C(=O)CCN(C2CCCC2)c2nc(NCc3ccc4c(c3)OCCO4)ncc21 [compound 127, 9-Cyclopentyl-2-[(2,3-dihydro-benzo[1,4]dioxin-6-ylmethyl)-amino]-5-methyl-5,7,8,9-tetrahydro-pyrimido[4,5-b][1,4]diazepin-6-one]"
,< 10 µM,"CN1C(=O)CCN(C2CCCC2)c2nc(NCc3cc4ccccc4s3)ncc21 [compound 129, 2-[(Benzo[b]thiophen-2-ylmethyl)-amino]-9-cyclopentyl-5-methyl-5,7,8,9-tetrahydro-pyrimido[4,5-b][1,4]diazepin-6-one]"
,< 10 µM,"Cc1cccc(CNc2ncc3c(n2)N(C2CCCC2)CCC(=O)N3C)c1 [compound 131, 9-Cyclopentyl-5-methyl-2-(3-methyl-benzylamino)-5,7,8,9-tetrahydro-pyrimido[4,5-b][1,4]diazepin-6-one]"
,< 10 µM,"Cc1c(Nc2ncc3c(n2)N(C2CCCC2)CCC(=O)N3C)cccc1C(=O)NCCO [compound 142, 3-(9-Cyclopentyl-5-methyl-6-oxo-6,7,8,9-tetrahydro-5H-pyrimido[4,5-b][1,4]diazepin-2-ylamino)-N-(2-hydroxy-ethyl)-2-methyl-benzamide]"
